Measurements taken from patent publication US20240238242A1, “EGCG buccal tablet and use thereof” (priority 2023, published 2024).
Where “and” joins values, the source holds several entries; their conditions need not be identical. Equal values may be shown once. Read-outs that look alike come from different tables or passages of the source.

Tested on: Influenza A virus neuraminidase inhibitor-resistant strain (ZX-1109)
Format: cell-based
Details: for average inactivation efficiency against virus: ZX1109 virus, three experiments; for residual virus titer of EGCG+virus group (Karber method) / inactivation efficiency against the virus: ZX-1109 virus; for inactivation efficiency against the virus: single experiment

## O=C(O[C@@H]1Cc2c(O)cc(O)cc2O[C@@H]1c1cc(O)c(O)c(O)c1)c1cc(O)c(O)c(O)c1 [EGCG, Epigallocatechin gallate]
1 mM EGCG + ZX-1109 virus, 1 minute, third experiment, dilution factor 10^6, wells 1-10
  CPE test (virus replication in the cell wells): − and +
1 mM EGCG + ZX-1109 virus, 1 minute, third experiment, dilution factor 10^7, wells 1-10
  CPE test (virus replication in the cell wells): −
1 mM EGCG + ZX-1109 virus, 1 minute, third experiment, dilution factor 10^8, wells 1-10
  CPE test (virus replication in the cell wells): −
1 mM EGCG + ZX-1109 virus, 5 minute, first experiment, dilution factor 10^2, wells 1-10
  CPE test (virus replication in the cell wells): +
1 mM EGCG + ZX-1109 virus, 5 minute, first experiment, dilution factor 10^3, wells 1-10
  CPE test (virus replication in the cell wells): +
1 mM EGCG + ZX-1109 virus, 5 minute, first experiment, dilution factor 10^4, wells 1-10
  CPE test (virus replication in the cell wells): +
1 mM EGCG + ZX-1109 virus, 5 minute, first experiment, dilution factor 10^5, wells 1-10
  CPE test (virus replication in the cell wells): + and −
1 mM EGCG + ZX-1109 virus, 5 minute, first experiment, dilution factor 10^6, wells 1-10
  CPE test (virus replication in the cell wells): − and +
1 mM EGCG + ZX-1109 virus, 5 minute, first experiment, dilution factor 10^7, wells 1-10
  CPE test (virus replication in the cell wells): − and +
1 mM EGCG + ZX-1109 virus, 5 minute, first experiment, dilution factor 10^8, wells 1-10
  CPE test (virus replication in the cell wells): + and −
1 mM EGCG + ZX-1109 virus, 5 minute, second experiment, dilution factor 10^2, wells 1-10
  CPE test (virus replication in the cell wells): +
1 mM EGCG + ZX-1109 virus, 5 minute, second experiment, dilution factor 10^3, wells 1-10
  CPE test (virus replication in the cell wells): +
1 mM EGCG + ZX-1109 virus, 5 minute, second experiment, dilution factor 10^4, wells 1-10
  CPE test (virus replication in the cell wells): +
1 mM EGCG + ZX-1109 virus, 5 minute, second experiment, dilution factor 10^5, wells 1-10
  CPE test (virus replication in the cell wells): + and −
1 mM EGCG + ZX-1109 virus, 5 minute, second experiment, dilution factor 10^6, wells 1-10
  CPE test (virus replication in the cell wells): − and +
1 mM EGCG + ZX-1109 virus, 5 minute, second experiment, dilution factor 10^7, wells 1-10
  CPE test (virus replication in the cell wells): − and +
1 mM EGCG + ZX-1109 virus, 5 minute, second experiment, dilution factor 10^8, wells 1-10
  CPE test (virus replication in the cell wells): − and +
1 mM EGCG + ZX-1109 virus, 5 minute, third experiment, dilution factor 10^2, wells 1-10
  CPE test per cell well: +
1 mM EGCG + ZX-1109 virus, 5 minute, third experiment, dilution factor 10^3, wells 1-10
  CPE test per cell well: +
1 mM EGCG + ZX-1109 virus, 5 minute, third experiment, dilution factor 10^4, wells 1-10
  CPE test per cell well: +
1 mM EGCG + ZX-1109 virus, 5 minute, third experiment, dilution factor 10^5, wells 1-10
  CPE test per cell well: − and +
1 mM EGCG + ZX-1109 virus, 5 minute, third experiment, dilution factor 10^6, wells 1-10
  CPE test per cell well: + and −
1 mM EGCG + ZX-1109 virus, 5 minute, third experiment, dilution factor 10^7, wells 1-10
  CPE test per cell well: − and +
1 mM EGCG + ZX-1109 virus, 5 minute, third experiment, dilution factor 10^8, wells 1-10
  CPE test per cell well: + and −
1 mM EGCG, 1 minute
  average inactivation efficiency against virus: 89.97%
  residual virus titer of EGCG+virus group (Karber method): 10^5 TCID50/50 μL
  inactivation efficiency against the virus: 93.69% and 92.06% and 84.15%
1 mM EGCG, 5 minutes
  average inactivation efficiency against virus: 97.59%
  residual virus titer of EGCG+virus group (Karber method): 10^6 TCID50/50 μL
  inactivation efficiency against the virus: 96.02% and 98.74% and 98.00%
5 mM EGCG + ZX1109 virus, 1 minute, second experiment, dilution factor 10^3, wells 1-10
  CPE test per cell well: +
5 mM EGCG + ZX1109 virus, 1 minute, second experiment, dilution factor 10^4, wells 1-10
  CPE test per cell well: + and −
5 mM EGCG + ZX1109 virus, 1 minute, second experiment, dilution factor 10^5, wells 1-10
  CPE test per cell well: − and +
5 mM EGCG + ZX1109 virus, 1 minute, second experiment, dilution factor 10^6, wells 1-10
  CPE test per cell well: −
5 mM EGCG + ZX1109 virus, 1 minute, second experiment, dilution factor 10^7, wells 1-10
  CPE test per cell well: −
5 mM EGCG + ZX1109 virus, 1 minute, second experiment, dilution factor 10^8, wells 1-10
  CPE test per cell well: −
5 mM EGCG + ZX-1109 virus, 1 minute, first experiment, dilution factor 10^2, wells 1-10
  CPE test per cell well: +
5 mM EGCG + ZX-1109 virus, 1 minute, first experiment, dilution factor 10^3, wells 1-10
  CPE test per cell well: +
5 mM EGCG + ZX-1109 virus, 1 minute, first experiment, dilution factor 10^4, wells 1-10
  CPE test per cell well: + and −
5 mM EGCG + ZX-1109 virus, 1 minute, first experiment, dilution factor 10^5, wells 1-10
  CPE test per cell well: + and −
5 mM EGCG + ZX-1109 virus, 1 minute, first experiment, dilution factor 10^6, wells 1-10
  CPE test per cell well: −
5 mM EGCG + ZX-1109 virus, 1 minute, first experiment, dilution factor 10^7, wells 1-10
  CPE test per cell well: −
5 mM EGCG + ZX-1109 virus, 1 minute, first experiment, dilution factor 10^8, wells 1-10
  CPE test per cell well: −
5 mM EGCG + ZX-1109 virus, 1 minute, third experiment, dilution factor 10^2, wells 1-10
  CPE test (virus replication in the cell wells): +
5 mM EGCG + ZX-1109 virus, 1 minute, third experiment, dilution factor 10^3, wells 1-10
  CPE test (virus replication in the cell wells): +
5 mM EGCG + ZX-1109 virus, 1 minute, third experiment, dilution factor 10^4, wells 1-10
  CPE test (virus replication in the cell wells): + and −
5 mM EGCG + ZX-1109 virus, 1 minute, third experiment, dilution factor 10^5, wells 1-10
  CPE test (virus replication in the cell wells): −
5 mM EGCG + ZX-1109 virus, 1 minute, third experiment, dilution factor 10^6, wells 1-10
  CPE test (virus replication in the cell wells): −
5 mM EGCG + ZX-1109 virus, 1 minute, third experiment, dilution factor 10^7, wells 1-10
  CPE test (virus replication in the cell wells): −
5 mM EGCG + ZX-1109 virus, 1 minute, third experiment, dilution factor 10^8, wells 1-10
  CPE test (virus replication in the cell wells): −
5 mM EGCG + ZX-1109 virus, 5 minute, first experiment, dilution factor 10^3, wells 1-10
  CPE test (virus replication in the cell wells): +
5 mM EGCG + ZX-1109 virus, 5 minute, first experiment, dilution factor 10^4, wells 1-10
  CPE test (virus replication in the cell wells): + and −
5 mM EGCG + ZX-1109 virus, 5 minute, first experiment, dilution factor 10^5, wells 1-10
  CPE test (virus replication in the cell wells): − and +
5 mM EGCG + ZX-1109 virus, 5 minute, first experiment, dilution factor 10^6, wells 1-10
  CPE test (virus replication in the cell wells): − and +
5 mM EGCG + ZX-1109 virus, 5 minute, first experiment, dilution factor 10^7, wells 1-10
  CPE test (virus replication in the cell wells): − and +
5 mM EGCG + ZX-1109 virus, 5 minute, first experiment, dilution factor 10^8, wells 1-10
  CPE test (virus replication in the cell wells): −
5 mM EGCG + ZX-1109 virus, 5 minute, second experiment, dilution factor 10^3, wells 1-10
  CPE test (virus replication in the cell wells): +
5 mM EGCG + ZX-1109 virus, 5 minute, second experiment, dilution factor 10^4, wells 1-10
  CPE test (virus replication in the cell wells): − and +
5 mM EGCG + ZX-1109 virus, 5 minute, second experiment, dilution factor 10^5, wells 1-10
  CPE test (virus replication in the cell wells): − and +
5 mM EGCG + ZX-1109 virus, 5 minute, second experiment, dilution factor 10^6, wells 1-10
  CPE test (virus replication in the cell wells): −
5 mM EGCG + ZX-1109 virus, 5 minute, second experiment, dilution factor 10^7, wells 1-10
  CPE test (virus replication in the cell wells): −
5 mM EGCG + ZX-1109 virus, 5 minute, second experiment, dilution factor 10^8, wells 1-10
  CPE test (virus replication in the cell wells): −
5 mM EGCG + ZX-1109 virus, 5 minute, third experiment, dilution factor 10^3, wells 1-10
  CPE test per cell well: +
5 mM EGCG + ZX-1109 virus, 5 minute, third experiment, dilution factor 10^4, wells 1-10
  CPE test per cell well: − and +
5 mM EGCG + ZX-1109 virus, 5 minute, third experiment, dilution factor 10^5, wells 1-10
  CPE test per cell well: −
5 mM EGCG + ZX-1109 virus, 5 minute, third experiment, dilution factor 10^6, wells 1-10
  CPE test per cell well: −
5 mM EGCG + ZX-1109 virus, 5 minute, third experiment, dilution factor 10^7, wells 1-10
  CPE test per cell well: −
5 mM EGCG + ZX-1109 virus, 5 minute, third experiment, dilution factor 10^8, wells 1-10
  CPE test per cell well: −
5 mM EGCG, 1 minute
  average inactivation efficiency against virus: 93.73%
  inactivation efficiency against the virus: 90.00% and 93.69% and 97.49%
5 mM EGCG, 5 minutes
  average inactivation efficiency against virus: 99.86%
  inactivation efficiency against the virus: 99.60% and 99.99%
